Measurements published in patent US20080194528A1, “Pharmaceutical compositions comprising organopolysiloxane elastomers and solubilized bioactive compounds” (GALDERMA RESEARCH AND DEVELOPMENT, priority 2005, published 2008).

Test: Active ingredient solubility tests in various solvents
Type: physicochemical
Protocol: The solubility of {4-[6-ethyl-4′-(1-ethyl-1-hydroxypropyl)-2′-propylbiphenyl-3-yloxymethyl]-2-hydroxymethylphenyl}methanol was tested in various solvents.

## CCCc1cc(C(O)(CC)CC)ccc1-c1cc(OCc2ccc(CO)c(CO)c2)ccc1CC [compound 3, {4-[6-ethyl-4′-(1-ethyl-1-hydroxypropyl)-2′-propylbiphenyl-3-yloxymethyl]-2-hydroxymethylphenyl}methanol]
In Arlamol E
  Max sol (% w/w): 1.033 % w/w
In Cremophor RH40
  Max sol (% w/w): 3.989 % w/w
In Ethanol 95
  Max sol (% w/w): >20 % w/w
In Eutanol G
  Max sol (% w/w): 0.322 % w/w
In IPP
  Max sol (% w/w): 0.1654 % w/w
In Labrafil M1944CS
  Max sol (% w/w): 0.936 % w/w
In Miglyol 812
  Max sol (% w/w): 0.3167 % w/w
In PEG 400
  Max sol (% w/w): 6.894 % w/w
In Primol 352
  Max sol (% w/w): 0.0009 % w/w
In Propylene Glycol
  Max sol (% w/w): 2.3351 % w/w
In Sweet almond oil
  Max sol (% w/w): 0.0932 % w/w
In Transcutol
  Max sol (% w/w): >20 % w/w
